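48-hour exposure; five concentrations; linearly interpolated endpoints. Here, GI50 denotes the concentration required for 50% inhibition of growth.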 The source made the active and inactive calls. Cut-off read from the data, not from the text of the source: active = GI50 up to about 1.1 µM and inactive = higher.
Columns and labels:
Assay in all cases: inhibition of tumour cell growth, NCI panel, 48 h
NCI/ADR-RES = system: NCI/ADR-RES
CCRF-CEM = system: CCRF-CEM
OVCAR-4 = system: OVCAR-4
IGROV-1 = system: IGROV-1
K562 = system: K562
TK-10 = system: TK-10
OVCAR-8 = system: OVCAR-8
DU-145 = system: DU-145
SK-MEL-2 = system: SK-MEL-2
T47D = system: T47D
M14 = system: M14
SF-539 = system: SF-539
HL-60 = system: HL-60
RPMI-8226 = system: RPMI-8226
UACC-62 = system: UACC-62
SR = system: SR
KM12 = system: KM12
MDA-N = system: MDA-N
SNB-19 = system: SNB-19
M19-MEL = system: M19-MEL

SMILES | GI50 (NCI/ADR-RES) | GI50 (CCRF-CEM) | GI50 (OVCAR-4) | GI50 (IGROV-1) | GI50 (K562) | GI50 (TK-10) | GI50 (OVCAR-8) | GI50 (DU-145) | GI50 (SK-MEL-2) | GI50 (T47D) | GI50 (M14) | GI50 (SF-539) | GI50 (HL-60) | GI50 (RPMI-8226) | GI50 (UACC-62) | GI50 (SR) | GI50 (KM12) | GI50 (MDA-N) | GI50 (SNB-19) | GI50 (M19-MEL)
CC[C@@]1(O)C(=O)OCc2c1cc1n(c2=O)Cc2c-1nc1ccc(O)cc1c2CC[Si](C)(C)C | 0.0489 µM (active) | < 0.001 µM (active) | 0.0291 µM (active) | 0.0248 µM (active) | 0.00839 µM (active) | 0.0385 µM (active) | 0.00716 µM (active) | < 0.001 µM (active) | 0.1 µM (active) | < 0.001 µM (active) | < 0.001 µM (active) | < 0.001 µM (active) | < 0.001 µM (active) | 0.0131 µM (active) | < 0.001 µM (active) | < 0.001 µM (active) | 0.0514 µM (active) | 0.0133 µM (active) | < 0.001 µM (active) | –
c1ncc(C23C4C5C6C4C2C6C53)[nH]1 (stereo not drawn) | > 100 µM (inactive) | > 100 µM (inactive) | > 100 µM (inactive) | > 100 µM (inactive) | > 100 µM (inactive) | > 100 µM (inactive) | > 100 µM (inactive) | > 100 µM (inactive) | > 100 µM (inactive) | > 100 µM (inactive) | > 100 µM (inactive) | > 100 µM (inactive) | > 100 µM (inactive) | > 100 µM (inactive) | > 100 µM (inactive) | > 100 µM (inactive) | > 100 µM (inactive) | > 100 µM (inactive) | > 100 µM (inactive) | –
O=C1C2C3SC(c4cc5ccccc5cc43)C2C(=O)N1c1ccccc1 (stereo not drawn) | – | > 100 µM (inactive) | 39.4 µM (inactive) | > 100 µM (inactive) | > 100 µM (inactive) | > 100 µM (inactive) | 90.6 µM (inactive) | – | 77.1 µM (inactive) | – | > 100 µM (inactive) | 85.3 µM (inactive) | > 100 µM (inactive) | > 100 µM (inactive) | 95.1 µM (inactive) | – | > 100 µM (inactive) | – | 30.7 µM (inactive) | > 100 µM (inactive)
CC(C)(C)C(=O)OC12/C(=N/O)CCCCCC1c1ccccc12 (stereo not drawn) | – | 23.4 µM (inactive) | 18.9 µM (inactive) | 16.1 µM (inactive) | 19.5 µM (inactive) | 15.9 µM (inactive) | 19.3 µM (inactive) | – | 19.2 µM (inactive) | – | 16.9 µM (inactive) | 23.2 µM (inactive) | 18.2 µM (inactive) | 11.9 µM (inactive) | 17.4 µM (inactive) | – | 16.1 µM (inactive) | – | 17.4 µM (inactive) | 16.6 µM (inactive)
COc1ccc(C(=O)C(C(=O)C(=O)Nc2ccc(Cl)c(Cl)c2)c2ccc(OC)cc2)cc1 (stereo not drawn) | – | – | > 100 µM (inactive) | > 100 µM (inactive) | > 100 µM (inactive) | > 100 µM (inactive) | > 100 µM (inactive) | – | > 100 µM (inactive) | – | > 100 µM (inactive) | > 100 µM (inactive) | 78.5 µM (inactive) | > 100 µM (inactive) | > 100 µM (inactive) | – | > 100 µM (inactive) | – | > 100 µM (inactive) | > 100 µM (inactive)
CC(=O)OC1C(CCl)OC(N=[N+]=[N-])C(OC(C)=O)C1OC(C)=O (stereo not drawn) | – | > 100 µM (inactive) | > 100 µM (inactive) | > 100 µM (inactive) | > 100 µM (inactive) | > 100 µM (inactive) | > 100 µM (inactive) | – | > 100 µM (inactive) | – | > 100 µM (inactive) | > 100 µM (inactive) | > 100 µM (inactive) | > 100 µM (inactive) | > 100 µM (inactive) | – | > 100 µM (inactive) | – | > 100 µM (inactive) | > 100 µM (inactive)
O=[N+]([O-])C1=Cc2c(O)ccc(O)c2C2OC=CC12 (stereo not drawn) | 19.2 µM (inactive) | 8.89 µM (inactive) | 16.4 µM (inactive) | 19.4 µM (inactive) | 9.44 µM (inactive) | 16.6 µM (inactive) | 21.4 µM (inactive) | 26.4 µM (inactive) | 18.7 µM (inactive) | 17.4 µM (inactive) | 18 µM (inactive) | 22.2 µM (inactive) | 8.59 µM (inactive) | 34.1 µM (inactive) | 6.81 µM (inactive) | 23 µM (inactive) | 16.4 µM (inactive) | 5.97 µM (inactive) | 23.9 µM (inactive) | –
CCOC(=O)c1nc2cc(Cl)ccc2[nH]c1=O | > 100 µM (inactive) | > 100 µM (inactive) | > 100 µM (inactive) | > 100 µM (inactive) | > 100 µM (inactive) | > 100 µM (inactive) | > 100 µM (inactive) | > 100 µM (inactive) | > 100 µM (inactive) | > 100 µM (inactive) | > 100 µM (inactive) | > 100 µM (inactive) | > 100 µM (inactive) | > 100 µM (inactive) | > 100 µM (inactive) | > 100 µM (inactive) | > 100 µM (inactive) | > 100 µM (inactive) | > 100 µM (inactive) | –
Cc1ccc(C2=Nc3ccccc3SC(c3cccc4c3OCO4)C2)cc1 (stereo not drawn) | – | 15.7 µM (inactive) | 15.5 µM (inactive) | 16.7 µM (inactive) | 14.8 µM (inactive) | 21.2 µM (inactive) | 21.2 µM (inactive) | – | 20.3 µM (inactive) | – | 18 µM (inactive) | 20 µM (inactive) | 17.4 µM (inactive) | 17.7 µM (inactive) | 20.3 µM (inactive) | – | 15.7 µM (inactive) | – | 16.1 µM (inactive) | 19.8 µM (inactive)
CC(C(=O)n1ccnc1)N1c2ccccc2Sc2ccccc21 (stereo not drawn) | 63.2 µM (inactive) | 84.7 µM (inactive) | > 100 µM (inactive) | > 100 µM (inactive) | 91.2 µM (inactive) | > 100 µM (inactive) | > 100 µM (inactive) | > 100 µM (inactive) | > 100 µM (inactive) | 39.5 µM (inactive) | 77.3 µM (inactive) | > 100 µM (inactive) | 91.8 µM (inactive) | 65.3 µM (inactive) | > 100 µM (inactive) | 50.1 µM (inactive) | 71.3 µM (inactive) | > 100 µM (inactive) | > 100 µM (inactive) | –
Cc1ccc(C(O)(c2ccc(C)cc2)c2ccccn2)cc1 | – | 51.5 µM (inactive) | > 100 µM (inactive) | > 100 µM (inactive) | 71.6 µM (inactive) | 62.1 µM (inactive) | > 100 µM (inactive) | – | > 100 µM (inactive) | – | > 100 µM (inactive) | > 100 µM (inactive) | – | > 100 µM (inactive) | > 100 µM (inactive) | – | > 10 µM (inactive) | – | > 100 µM (inactive) | > 100 µM (inactive)
Clc1cc(Cl)cc(/C=N/C23CC4CC(CC(C4)C2)C3)c1 | > 10 µM (inactive) | > 10 µM (inactive) | > 10 µM (inactive) | > 10 µM (inactive) | > 10 µM (inactive) | > 10 µM (inactive) | > 10 µM (inactive) | > 10 µM (inactive) | > 10 µM (inactive) | > 10 µM (inactive) | > 10 µM (inactive) | > 10 µM (inactive) | > 10 µM (inactive) | > 10 µM (inactive) | > 10 µM (inactive) | > 10 µM (inactive) | > 10 µM (inactive) | > 10 µM (inactive) | > 10 µM (inactive) | –
COc1ccc(C(=O)/C=C/c2ccc(OCCCOc3ccc(/C=C/C(=O)c4ccc(OC)cc4)cc3)cc2)cc1 | > 100 µM (inactive) | > 100 µM (inactive) | 60.7 µM (inactive) | > 100 µM (inactive) | > 100 µM (inactive) | > 100 µM (inactive) | > 100 µM (inactive) | > 100 µM (inactive) | > 100 µM (inactive) | > 100 µM (inactive) | > 100 µM (inactive) | 28.8 µM (inactive) | > 100 µM (inactive) | 21.8 µM (inactive) | > 100 µM (inactive) | > 100 µM (inactive) | 91.2 µM (inactive) | > 100 µM (inactive) | > 100 µM (inactive) | –
CC(NNC(=O)c1cc[n+]([BH2-]C#N)cc1)c1ccc(Cl)c(Cl)c1 (stereo not drawn) | 30.5 µM (inactive) | 37.1 µM (inactive) | 30.9 µM (inactive) | 38.5 µM (inactive) | 34.9 µM (inactive) | 28.6 µM (inactive) | 42.8 µM (inactive) | 37.8 µM (inactive) | 32.2 µM (inactive) | 23.3 µM (inactive) | 38.1 µM (inactive) | 38.9 µM (inactive) | 25.8 µM (inactive) | 33.5 µM (inactive) | 29.7 µM (inactive) | 36 µM (inactive) | 40.5 µM (inactive) | 35.2 µM (inactive) | 38.3 µM (inactive) | –
Oc1cccc2c1[nH]c1c(C3=C[C@@]4(O)CC/C=C\CCCCN5CC[C@@H]3[C@]3(CC6/C=C\CCCCN6[C@H]34)C5)nccc12 (stereo partly drawn) | 2.17 µM (inactive) | 0.973 µM (active) | 0.679 µM (active) | 1.02 µM (active) | 0.607 µM (active) | 1.9 µM (inactive) | 1.15 µM (inactive) | 1.15 µM (inactive) | 1.47 µM (inactive) | 0.804 µM (active) | 0.966 µM (active) | 1.71 µM (inactive) | 0.667 µM (active) | 0.61 µM (active) | 1.47 µM (inactive) | 0.578 µM (active) | 1.55 µM (inactive) | 0.771 µM (active) | 2.69 µM (inactive) | –
COc1cccc(/C=C(/C(=O)O)c2cc(OC)c(OC)c(OC)c2)c1 | – | 46.5 µM (inactive) | > 100 µM (inactive) | > 100 µM (inactive) | 51.8 µM (inactive) | > 100 µM (inactive) | > 100 µM (inactive) | – | – | – | > 100 µM (inactive) | > 100 µM (inactive) | 66.5 µM (inactive) | > 100 µM (inactive) | > 100 µM (inactive) | – | > 100 µM (inactive) | – | > 100 µM (inactive) | > 100 µM (inactive)
